Test results published in the supplement of paper PMC10307832.

How the values were obtained:
Test in all cases: relative viability (nuclei count vs DMSO), 5 days (fraction); higher = more cells survive
[1] = compound: C1/C(=C\C2=CC=CS2)/C(=O)/C(=C/C3=CC=CS3)/C1
How it was run: (§1)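 Viability was defined as treated-well nuclei divided by vehicle-well nuclei, with the median taken over replicate plates. Cells from lung cancer lines sat overnight at 37 °C in 1536-well plates, received five √10-spaced library-drug doses by pinning on vehicle-anchored plates, and grew 5 days without medium change before one-step fixation, permeabilisation and Hoechst staining, 4× imaging and MetaXpress nuclear counts. Only plates with control CV under 25% and at least one doubling were kept.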

TPCA-1 = compound: C1=CC(=CC=C1C2=CC(=C(S2)NC(=O)N)C(=O)N)F [TPCA-1]
How it was run: as §1

Lestaurtinib = compound: C[C@]12O[C@H](C[C@]1(O)CO)n1c3ccccc3c3c4c(c5c6ccccc6n2c5c31)CNC4=O [Lestaurtinib]
How it was run: as §1

EKVX
relative viability ([1]; 0.2 µM): 0.984 | relative viability ([1]; 0.6325 µM): 0.928 | relative viability ([1]; 2 µM): 1.15 | relative viability ([1]; 6.325 µM): 0.772 | relative viability ([1]; 20 µM): 0.961 | relative viability (TPCA-1; 0.04 µM): 1.05 | relative viability (TPCA-1; 0.1265 µM): 0.829 | relative viability (TPCA-1; 0.4 µM): 1.04 | relative viability (TPCA-1; 1.265 µM): 0.815 | relative viability (TPCA-1; 4 µM): 0.737 | relative viability (Lestaurtinib; 0.005 µM): 1 | relative viability (Lestaurtinib; 0.01581 µM): 1.09 | relative viability (Lestaurtinib; 0.05 µM): 1.05 | relative viability (Lestaurtinib; 0.1581 µM): 1.01 | relative viability (Lestaurtinib; 0.5 µM): 0.663

EMC-BAC-2
relative viability ([1]; 0.2 µM): 0.904 | relative viability ([1]; 0.6325 µM): 1.06 | relative viability ([1]; 2 µM): 0.978 | relative viability ([1]; 6.325 µM): 0.916 | relative viability ([1]; 20 µM): 1.07 | relative viability (TPCA-1; 0.04 µM): 1.01 | relative viability (TPCA-1; 0.1265 µM): 0.979 | relative viability (TPCA-1; 0.4 µM): 1.05 | relative viability (TPCA-1; 1.265 µM): 0.819 | relative viability (TPCA-1; 4 µM): 0.392 | relative viability (Lestaurtinib; 0.005 µM): 0.925 | relative viability (Lestaurtinib; 0.01581 µM): 1.04 | relative viability (Lestaurtinib; 0.05 µM): 0.73 | relative viability (Lestaurtinib; 0.1581 µM): 0.417 | relative viability (Lestaurtinib; 0.5 µM): 0.357

EPLC-272H
relative viability ([1]; 0.2 µM): 1.13 | relative viability ([1]; 0.6325 µM): 0.925 | relative viability ([1]; 2 µM): 1.01 | relative viability ([1]; 6.325 µM): 0.833 | relative viability ([1]; 20 µM): 0.786 | relative viability (TPCA-1; 0.04 µM): 1.06 | relative viability (TPCA-1; 0.1265 µM): 0.881 | relative viability (TPCA-1; 0.4 µM): 1.12 | relative viability (TPCA-1; 1.265 µM): 0.805 | relative viability (TPCA-1; 4 µM): 0.676 | relative viability (Lestaurtinib; 0.005 µM): 0.801 | relative viability (Lestaurtinib; 0.01581 µM): 0.748 | relative viability (Lestaurtinib; 0.05 µM): 0.607 | relative viability (Lestaurtinib; 0.1581 µM): 0.444 | relative viability (Lestaurtinib; 0.5 µM): 0.304

H3255
relative viability ([1]; 0.2 µM): 1.03 | relative viability ([1]; 0.6325 µM): 1.04 | relative viability ([1]; 2 µM): 0.977 | relative viability ([1]; 6.325 µM): 0.899 | relative viability ([1]; 20 µM): 0.972 | relative viability (TPCA-1; 0.04 µM): 1.08 | relative viability (TPCA-1; 0.1265 µM): 0.898 | relative viability (TPCA-1; 0.4 µM): 0.916 | relative viability (TPCA-1; 1.265 µM): 0.816 | relative viability (TPCA-1; 4 µM): 0.783 | relative viability (Lestaurtinib; 0.005 µM): 1.03 | relative viability (Lestaurtinib; 0.01581 µM): 1.08 | relative viability (Lestaurtinib; 0.05 µM): 0.935 | relative viability (Lestaurtinib; 0.1581 µM): 0.744 | relative viability (Lestaurtinib; 0.5 µM): 0.511

HARA
relative viability ([1]; 0.2 µM): 1.11 | relative viability ([1]; 0.6325 µM): 0.94 | relative viability ([1]; 2 µM): 1.03 | relative viability ([1]; 6.325 µM): 0.853 | relative viability ([1]; 20 µM): 0.945 | relative viability (TPCA-1; 0.04 µM): 1.05 | relative viability (TPCA-1; 0.1265 µM): 0.996 | relative viability (TPCA-1; 0.4 µM): 1.06 | relative viability (TPCA-1; 1.265 µM): 1.14 | relative viability (TPCA-1; 4 µM): 0.476 | relative viability (Lestaurtinib; 0.005 µM): 1.09 | relative viability (Lestaurtinib; 0.01581 µM): 1.22 | relative viability (Lestaurtinib; 0.05 µM): 1.08 | relative viability (Lestaurtinib; 0.1581 µM): 0.619 | relative viability (Lestaurtinib; 0.5 µM): 0.499

HCC-15
relative viability ([1]; 0.2 µM): 1.04 | relative viability ([1]; 0.6325 µM): 1.04 | relative viability ([1]; 2 µM): 1.03 | relative viability ([1]; 6.325 µM): 0.87 | relative viability ([1]; 20 µM): 0.977 | relative viability (TPCA-1; 0.04 µM): 1.14 | relative viability (TPCA-1; 0.1265 µM): 0.926 | relative viability (TPCA-1; 0.4 µM): 1.04 | relative viability (TPCA-1; 1.265 µM): 0.887 | relative viability (TPCA-1; 4 µM): 0.55 | relative viability (Lestaurtinib; 0.005 µM): 1.08 | relative viability (Lestaurtinib; 0.01581 µM): 1.18 | relative viability (Lestaurtinib; 0.05 µM): 0.873 | relative viability (Lestaurtinib; 0.1581 µM): 0.824 | relative viability (Lestaurtinib; 0.5 µM): 0.183

HCC-44
relative viability ([1]; 0.2 µM): 1.02 | relative viability ([1]; 0.6325 µM): 1 | relative viability ([1]; 2 µM): 0.989 | relative viability ([1]; 6.325 µM): 0.898 | relative viability ([1]; 20 µM): 0.962 | relative viability (TPCA-1; 0.04 µM): 1.01 | relative viability (TPCA-1; 0.1265 µM): 0.933 | relative viability (TPCA-1; 0.4 µM): 0.965 | relative viability (TPCA-1; 1.265 µM): 0.643 | relative viability (TPCA-1; 4 µM): 0.901 | relative viability (Lestaurtinib; 0.005 µM): 0.923 | relative viability (Lestaurtinib; 0.01581 µM): 1.16 | relative viability (Lestaurtinib; 0.05 µM): 0.941 | relative viability (Lestaurtinib; 0.1581 µM): 1.11 | relative viability (Lestaurtinib; 0.5 µM): 0.845

HCC-78
relative viability ([1]; 0.2 µM): 0.972 | relative viability ([1]; 0.6325 µM): 0.927 | relative viability ([1]; 2 µM): 1.25 | relative viability ([1]; 6.325 µM): 0.823 | relative viability ([1]; 20 µM): 0.908 | relative viability (TPCA-1; 0.04 µM): 0.972 | relative viability (TPCA-1; 0.1265 µM): 0.834 | relative viability (TPCA-1; 0.4 µM): 0.892 | relative viability (TPCA-1; 1.265 µM): 0.788 | relative viability (TPCA-1; 4 µM): 0.391 | relative viability (Lestaurtinib; 0.005 µM): 0.823 | relative viability (Lestaurtinib; 0.01581 µM): 0.943 | relative viability (Lestaurtinib; 0.05 µM): 0.547 | relative viability (Lestaurtinib; 0.1581 µM): 0.577 | relative viability (Lestaurtinib; 0.5 µM): 0.44

HCC-366
relative viability ([1]; 0.2 µM): 1.02 | relative viability ([1]; 0.6325 µM): 1.05 | relative viability ([1]; 2 µM): 1.1 | relative viability ([1]; 6.325 µM): 0.827 | relative viability ([1]; 20 µM): 1.04 | relative viability (TPCA-1; 0.04 µM): 1.03 | relative viability (TPCA-1; 0.1265 µM): 0.995 | relative viability (TPCA-1; 0.4 µM): 1.01 | relative viability (TPCA-1; 1.265 µM): 1.01 | relative viability (TPCA-1; 4 µM): 0.152 | relative viability (Lestaurtinib; 0.005 µM): 1.06 | relative viability (Lestaurtinib; 0.01581 µM): 1.01 | relative viability (Lestaurtinib; 0.05 µM): 1.02 | relative viability (Lestaurtinib; 0.1581 µM): 1.01 | relative viability (Lestaurtinib; 0.5 µM): 0.829

HCC-827
relative viability ([1]; 0.2 µM): 1.05 | relative viability ([1]; 0.6325 µM): 1.04 | relative viability ([1]; 2 µM): 1.05 | relative viability ([1]; 6.325 µM): 0.956 | relative viability ([1]; 20 µM): 1.04 | relative viability (TPCA-1; 0.04 µM): 1.12 | relative viability (TPCA-1; 0.1265 µM): 0.988 | relative viability (TPCA-1; 0.4 µM): 1.05 | relative viability (TPCA-1; 1.265 µM): 0.961 | relative viability (TPCA-1; 4 µM): 0.813 | relative viability (Lestaurtinib; 0.005 µM): 1.01 | relative viability (Lestaurtinib; 0.01581 µM): 1.07 | relative viability (Lestaurtinib; 0.05 µM): 1.03 | relative viability (Lestaurtinib; 0.1581 µM): 0.892 | relative viability (Lestaurtinib; 0.5 µM): 0.664

HOP-62
relative viability ([1]; 0.2 µM): 1.1 | relative viability ([1]; 0.6325 µM): 1.02 | relative viability ([1]; 2 µM): 1.01 | relative viability ([1]; 6.325 µM): 0.928 | relative viability ([1]; 20 µM): 1.01 | relative viability (TPCA-1; 0.04 µM): 1.02 | relative viability (TPCA-1; 0.1265 µM): 0.97 | relative viability (TPCA-1; 0.4 µM): 0.956 | relative viability (TPCA-1; 1.265 µM): 0.943 | relative viability (TPCA-1; 4 µM): 0.852 | relative viability (Lestaurtinib; 0.005 µM): 1.02 | relative viability (Lestaurtinib; 0.01581 µM): 1.11 | relative viability (Lestaurtinib; 0.05 µM): 0.921 | relative viability (Lestaurtinib; 0.1581 µM): 1.12 | relative viability (Lestaurtinib; 0.5 µM): 0.452
